In US20210317140A1, “Heterocyclic Compounds and Methods of Use” (MEDIVATION TECHNOLOGIES, INC, priority 2013, published 2021):

What was measured:
TEC = target: T1, TEC (Homo sapiens, UniProt P42680); assay: TEC kinase profiling (BTK protocol); assay type: biochemical; conditions: 0.3 μM compound
T1 construct: purchased Reaction Biology Corporation
T1 sequence (P42680 1-631): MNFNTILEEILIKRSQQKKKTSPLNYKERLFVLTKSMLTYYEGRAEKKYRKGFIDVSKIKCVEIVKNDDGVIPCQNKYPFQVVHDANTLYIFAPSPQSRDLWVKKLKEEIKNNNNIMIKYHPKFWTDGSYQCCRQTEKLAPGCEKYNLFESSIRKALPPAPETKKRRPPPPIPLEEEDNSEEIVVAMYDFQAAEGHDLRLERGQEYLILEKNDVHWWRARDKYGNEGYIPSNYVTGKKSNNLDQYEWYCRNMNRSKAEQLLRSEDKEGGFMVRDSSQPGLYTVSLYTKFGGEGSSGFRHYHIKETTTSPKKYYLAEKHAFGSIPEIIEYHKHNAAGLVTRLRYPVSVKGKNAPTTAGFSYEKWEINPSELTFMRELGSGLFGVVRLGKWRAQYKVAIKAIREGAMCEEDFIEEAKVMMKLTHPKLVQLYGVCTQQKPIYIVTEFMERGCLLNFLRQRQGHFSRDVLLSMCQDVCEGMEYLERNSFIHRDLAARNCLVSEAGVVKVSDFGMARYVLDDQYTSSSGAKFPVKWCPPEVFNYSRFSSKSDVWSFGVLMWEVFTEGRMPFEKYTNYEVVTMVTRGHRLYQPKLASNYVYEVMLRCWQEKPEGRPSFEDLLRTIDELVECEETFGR
Protocol: (§1) BTK assay: In vitro profiling protein kinases was performed using the “HotSpot” assay platform. Briefly, specific kinase/substrate pairs along with required cofactors were prepared in reaction buffer. Compounds were prepared as 10 mM stock solutions in DMSO. Compounds were delivered into the reaction, followed 15-20 minutes later by addition of a mixture of ATP (Sigma, St. Louis Mo.) and ^33P ATP (Perkin Elmer, Waltham Mass.) to a final concentration of 10 μM. […] IC50 values and curve fits were obtained using Prism (GraphPad Software). Buffer Conditions: 20 mM Hepes (pH 7.5), 10 mM MgCl2, 1 mM EGTA, 0.02% Brij35, 0.02 mg/mL BSA, 0.1 mM Na3VO4, 2 mM DTT, 1% DMSO.

BTK = target: T2, BTK (Homo sapiens, UniProt Q06187); assay: BTK kinase assay (HotSpot, 33P ATP); assay type: biochemical; conditions: for BTK @ 0.1 μM (% Inh): 0.1 μM compound, 10 μM ATP; for IC50: 10 dose IC50, 10 μM ATP
T2 construct: purchased Reaction Biology Corporation
T2 sequence (Q06187 whole entry): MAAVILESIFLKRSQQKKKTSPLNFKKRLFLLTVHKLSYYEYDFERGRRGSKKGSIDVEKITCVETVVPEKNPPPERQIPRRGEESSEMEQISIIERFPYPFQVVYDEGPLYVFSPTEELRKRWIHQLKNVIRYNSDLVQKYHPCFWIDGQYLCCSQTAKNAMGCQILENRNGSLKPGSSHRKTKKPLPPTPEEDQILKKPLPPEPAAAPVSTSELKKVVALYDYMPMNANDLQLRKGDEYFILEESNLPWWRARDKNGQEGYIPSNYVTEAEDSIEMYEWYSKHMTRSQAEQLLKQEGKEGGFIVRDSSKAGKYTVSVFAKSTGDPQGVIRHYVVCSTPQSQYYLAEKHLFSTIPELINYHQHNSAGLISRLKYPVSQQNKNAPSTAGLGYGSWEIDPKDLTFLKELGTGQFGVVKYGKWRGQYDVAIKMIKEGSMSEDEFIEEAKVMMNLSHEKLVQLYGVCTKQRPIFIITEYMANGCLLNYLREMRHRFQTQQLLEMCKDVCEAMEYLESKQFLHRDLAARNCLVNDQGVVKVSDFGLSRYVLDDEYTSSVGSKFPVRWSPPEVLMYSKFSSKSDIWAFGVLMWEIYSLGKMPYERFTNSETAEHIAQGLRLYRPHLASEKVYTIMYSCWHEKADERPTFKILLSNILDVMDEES
Summary of the method: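 In 20 mM Hepes (pH 7.5) with 10 mM MgCl2, 1 mM EGTA, 0.1 mM Na3VO4, 2 mM DTT, 0.02% Brij35, 0.02 mg/mL BSA and 1% DMSO, kinase and substrate were exposed to ten compound doses for 15–20 min.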

ITK = target: T3, ITK (Homo sapiens, UniProt Q08881); assay: ITK kinase profiling (BTK protocol); assay type: biochemical; conditions: 0.3 μM compound
T3 construct: purchased Reaction Biology Corporation
T3 sequence (Q08881 1-620): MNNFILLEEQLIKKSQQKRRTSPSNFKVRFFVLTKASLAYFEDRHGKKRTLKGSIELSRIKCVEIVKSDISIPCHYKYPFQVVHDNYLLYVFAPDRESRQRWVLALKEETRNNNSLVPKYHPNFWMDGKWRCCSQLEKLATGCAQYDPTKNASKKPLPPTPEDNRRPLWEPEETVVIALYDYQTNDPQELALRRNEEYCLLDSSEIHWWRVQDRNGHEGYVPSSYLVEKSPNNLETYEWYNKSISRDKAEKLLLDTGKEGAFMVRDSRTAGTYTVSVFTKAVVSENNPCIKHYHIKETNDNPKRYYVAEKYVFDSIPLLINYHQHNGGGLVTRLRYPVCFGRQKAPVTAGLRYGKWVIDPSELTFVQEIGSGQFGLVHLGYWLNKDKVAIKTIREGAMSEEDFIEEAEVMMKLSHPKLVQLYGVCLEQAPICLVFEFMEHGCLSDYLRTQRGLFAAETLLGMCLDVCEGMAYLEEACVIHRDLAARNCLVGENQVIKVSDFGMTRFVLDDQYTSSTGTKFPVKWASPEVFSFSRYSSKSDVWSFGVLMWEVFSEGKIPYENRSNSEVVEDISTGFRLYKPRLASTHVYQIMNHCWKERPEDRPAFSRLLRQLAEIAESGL
Protocol: as §1

PI3Kα = target: T4, PI3Kα (Homo sapiens, UniProt P42336); assay: PI3Kα isoform profiling (PI3Kδ protocol); assay type: biochemical; conditions: 0.3 μM compound
T4 construct: purchased Reaction Biology Corporation
T4 sequence (P42336 whole entry, canonical isoform): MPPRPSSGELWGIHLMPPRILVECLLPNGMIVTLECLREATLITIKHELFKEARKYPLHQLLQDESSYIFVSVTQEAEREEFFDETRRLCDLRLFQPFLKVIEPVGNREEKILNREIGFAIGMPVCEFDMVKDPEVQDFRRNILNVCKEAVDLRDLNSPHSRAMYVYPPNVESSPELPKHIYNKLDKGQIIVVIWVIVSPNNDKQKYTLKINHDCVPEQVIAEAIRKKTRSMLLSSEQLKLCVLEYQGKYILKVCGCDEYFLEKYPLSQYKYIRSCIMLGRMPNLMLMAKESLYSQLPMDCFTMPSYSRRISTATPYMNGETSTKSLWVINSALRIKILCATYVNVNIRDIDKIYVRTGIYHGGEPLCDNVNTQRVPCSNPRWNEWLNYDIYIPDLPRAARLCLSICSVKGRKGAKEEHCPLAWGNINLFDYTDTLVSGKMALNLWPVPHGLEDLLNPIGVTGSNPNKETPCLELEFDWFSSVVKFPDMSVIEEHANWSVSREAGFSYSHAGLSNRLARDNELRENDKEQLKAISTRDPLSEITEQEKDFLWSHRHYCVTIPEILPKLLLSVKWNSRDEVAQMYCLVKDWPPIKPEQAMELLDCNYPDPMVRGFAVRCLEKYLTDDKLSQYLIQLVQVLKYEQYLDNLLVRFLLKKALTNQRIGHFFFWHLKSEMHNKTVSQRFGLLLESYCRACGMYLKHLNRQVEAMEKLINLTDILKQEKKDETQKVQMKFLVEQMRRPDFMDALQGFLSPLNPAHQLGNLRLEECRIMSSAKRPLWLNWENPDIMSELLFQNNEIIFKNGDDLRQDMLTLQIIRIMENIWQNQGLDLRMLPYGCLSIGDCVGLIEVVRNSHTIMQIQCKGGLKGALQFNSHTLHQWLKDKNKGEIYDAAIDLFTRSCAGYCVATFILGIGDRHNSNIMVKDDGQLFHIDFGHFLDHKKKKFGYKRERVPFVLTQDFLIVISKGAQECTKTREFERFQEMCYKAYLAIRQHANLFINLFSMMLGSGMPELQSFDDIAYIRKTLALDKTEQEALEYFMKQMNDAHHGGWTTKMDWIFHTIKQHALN
T4 sequence (P27986 whole entry partner, canonical isoform): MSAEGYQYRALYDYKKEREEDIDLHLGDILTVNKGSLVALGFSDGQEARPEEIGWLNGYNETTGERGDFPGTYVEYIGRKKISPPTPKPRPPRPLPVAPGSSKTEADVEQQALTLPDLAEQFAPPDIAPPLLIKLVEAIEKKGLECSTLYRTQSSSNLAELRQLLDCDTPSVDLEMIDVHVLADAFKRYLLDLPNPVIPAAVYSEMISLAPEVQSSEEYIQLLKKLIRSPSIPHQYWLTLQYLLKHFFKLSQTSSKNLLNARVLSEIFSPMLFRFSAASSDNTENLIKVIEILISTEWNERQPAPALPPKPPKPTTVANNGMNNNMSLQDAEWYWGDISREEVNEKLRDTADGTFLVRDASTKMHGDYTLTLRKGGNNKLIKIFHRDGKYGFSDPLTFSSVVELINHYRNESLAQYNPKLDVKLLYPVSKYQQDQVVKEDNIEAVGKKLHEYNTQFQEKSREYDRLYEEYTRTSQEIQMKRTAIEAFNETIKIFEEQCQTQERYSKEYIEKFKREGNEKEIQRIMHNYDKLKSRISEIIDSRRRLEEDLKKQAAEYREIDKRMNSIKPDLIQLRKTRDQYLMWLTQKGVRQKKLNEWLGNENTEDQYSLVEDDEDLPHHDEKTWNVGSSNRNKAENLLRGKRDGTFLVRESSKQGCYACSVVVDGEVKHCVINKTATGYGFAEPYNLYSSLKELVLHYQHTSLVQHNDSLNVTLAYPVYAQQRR
Excerpt: PI3Kδ assay: The PIP3 product is detected by displacement of biotin-PIP3 from an energy transfer complex consisting of Europium labeled anti-GST monoclonal antibody, a GST-tagged pleckstrin homology (PH) domain, biotinylated PIP3 and Streptavidin-Allophycocyanin (APC). Excitation of Europium in the complex results in an energy transfer to the APC and a fluorescent emission at 665 nm. The PIP3 product formed by PI 3-Kinase(h) activity displaces biotin-PIP3 from the complex resulting in a loss of energy transfer and thus a decrease in signal. This is a 3-step reaction: First, the kinase reaction with PIP2 substrate is carried out in the presence of ATP (10 μM), and the reaction is quenched with stop Solution, and then finally detect by adding Detection Mixture followed by incubation (10 min). Reaction procedure: 1) Prepare substrate in freshly prepared Reaction Buffer. 2) Deliver kinase into the substrate solution and gently mix. 3) Deliver compounds in 100% DMSO (1 μM) into the kinase reaction mixture by Acoustic technology (Echo550; nanoliter range), incubate for 10 min at RT. 4) Deliver ATP into the reaction mixture to initiate the reaction. 5) Incubate for 30 min at 30° C. 6) Quench the reaction with Stop Solution. 7) Add Detection Mixture, and incubate for overnight. 8) Measure HTRF: Ex=320 nm, ratio of Em=615 nm and Em=665 nm. The emission ratio is converted into μM PIP3 production based on PIP3 standard curves. The nonlinear regression to obtain the standard curve and IC50 values are performed using Graphpad Prism software. Assay Buffer: HEPES 50 mM (pH7.0), NaN3 0.02%, BSA 0.01%, Orthovanadate 0.1 mM, 1% DMSO. Detection buffer: HEPES 10 mM (pH7.0), BSA 0.02%, KF 0.16 M, EDTA 4 mM. Substrate: 10 μM PIP2 substrate (PI(4,5)P2).
Compounds of the invention were profiled in a 10 dose IC50 panel against PI3Kα, PI3Kβ, and PI3Kγ kinases, provided by Reaction Biology Corporation, applied to the PI3Kδ protocol provided in Example B1.

CD69+B220+ cells = assay: B cell activation assay (IgD-stimulated splenocytes, CD69+B220+ cells by FACS); assay type: cell-based; conditions: 100 nM compound, mouse splenocytes, IgD 3 μg/mL, 4 h
Summary of the method: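 Read-out is percent CD69+ among live B220+ cells by FACS after 4 h stimulation with 3 μg/mL IgD at 37 °C. Before stimulation, splenocytes from one female mouse (10^6 cells/mL) received 100 nM compound for 30 min.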

| TEC @ 0.3 μM (% Inh) (TEC) | BTK @ 0.1 μM (% Inh) (BTK) | IC50 (BTK) | ITK @ 0.3 μM (% Inh) (ITK) | PI3Kα @ 0.3 μM (% Inh) (PI3Kα) | Compound | CD69 @ 100 nM (% Inh) (CD69+B220+ cells) |
| --- | --- | --- | --- | --- | --- | --- |
| 20.18 % Inh | 48.87 % Inh | 26.1 nM | 0.02 % Inh | 76.76 % Inh | Nc1ncnc2c1c(-c1ccc(Br)c(O)c1)nn2C1CCc2ccccc2C1 (stereo not shown) [compound 8, 5-(4-amino-1-(1,2,3,4-tetrahydronaphthalen-2-yl)-1H-pyrazolo[3,4-d]pyrimidin-3-yl)-2-bromophenol] |  |
| 11.45 % Inh | 41.16 % Inh | 164 nM | −0.36 % Inh |  | COc1ccc(-c2nn(C3CCc4ccccc4C3)c3ncnc(N)c23)cc1OC (racemic) [compound 17, 3-(3,4-dimethoxyphenyl)-1-(1,2,3,4-tetrahydronaphthalen-2-yl)-1H-pyrazolo[3,4-d]pyrimidin-4-amine] | 33.56 ± 13.70 (n = 5) % Inh |
